As usually defined, the IC50 is the midpoint of a concentration-inhibition curve.

Each structure is given as a SMILES string.

One experiment concerns ER (ERE). The experiment in a line: ER antagonism (ERE). The format is cell-based. On the procedure: (§1) Example compounds were assayed to determine ER downregulation, relative binding affinity, and ER antagonism.
Experiment [1] has as its system tamoxifen-sensitive ER+ MCF-7:WS8 breast cancer cells. The experiment in a line: Growth inhibition in tamoxifen-sensitive ER+ MCF-7:WS8 breast cancer cells. It counts as cell-based. The note with it: MCF7:WS8, MCF-7:WS8 cells; for IC50: assayed from 0.01 nM to 1 uM; for Emax: read-out: MCF7:WS8 Max efficacy (%).
The target of a further experiment is T1, ER (Homo sapiens, UniProt P03372).
T1 construct: endogenous in cells
T1 sequence (P03372 1-595): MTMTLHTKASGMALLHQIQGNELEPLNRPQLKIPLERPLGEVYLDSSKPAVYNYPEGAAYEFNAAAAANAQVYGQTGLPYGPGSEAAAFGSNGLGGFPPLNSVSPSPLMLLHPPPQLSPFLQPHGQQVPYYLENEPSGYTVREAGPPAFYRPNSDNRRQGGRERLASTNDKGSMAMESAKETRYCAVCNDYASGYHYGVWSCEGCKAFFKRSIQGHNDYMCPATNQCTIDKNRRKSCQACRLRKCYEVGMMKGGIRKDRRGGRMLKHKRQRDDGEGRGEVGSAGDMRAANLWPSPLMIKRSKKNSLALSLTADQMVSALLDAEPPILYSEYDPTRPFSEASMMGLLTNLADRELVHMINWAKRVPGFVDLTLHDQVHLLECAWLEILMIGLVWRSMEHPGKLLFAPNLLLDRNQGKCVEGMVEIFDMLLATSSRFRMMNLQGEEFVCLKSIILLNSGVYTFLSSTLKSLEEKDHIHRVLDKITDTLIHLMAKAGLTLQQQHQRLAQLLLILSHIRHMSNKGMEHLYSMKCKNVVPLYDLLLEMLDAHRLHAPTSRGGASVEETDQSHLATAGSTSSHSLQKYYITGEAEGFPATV
Kind of experiment: Relative binding affinity (RBA). On the procedure: as §1

The subject of experiment [2] is tamoxifen-resistant MCF-7:5C breast cancer cells. The experiment in a line: Growth inhibition in tamoxifen-resistant MCF-7:5C breast cancer cells. It counts as cell-based. The note with it: MCF7:5C, MCF-7:5C cells; for IC50: assayed from 0.01 nM to 1 uM; for Emax: read-out: MCF7:5C Max efficacy (%).

With `O=C(c1ccccc1)c1sc2cc(O)ccc2c1Oc1ccc(OCCN2CC(CF)C2)cc1` [Compound 3, (3-(4-(2-(3-(fluoromethyl)azetidin-1-yl)ethoxy)phenoxy)-6-hydroxybenzo[b]thiophen-2-yl)(phenyl)methanone], the IC50 with ER (ERE) came to 4.3 ± 0.1 nM; in experiment [1], 0.55 ± 0.01 nM; in experiment [2] it was 15 ± 4 nM. Moreover, the Emax in experiment [1] turned out to be 65%; in experiment [2], 60%. Further, the “RBA (%)” value at ER is on record as 30.7 ± 7%.

Turning to `Cc1ccccc1C(=O)c1sc2cc(O)ccc2c1Oc1ccc(OCCN2CC(CF)C2)cc1` [Compound 8, (3-(4-(2-(3-(fluoromethyl)azetidin-1-yl)ethoxy)phenoxy)-6-hydroxybenzo[b]thiophen-2-yl)(o-tolyl)methanone], the IC50 came to 1.5 ± 0.09 nM with ER (ERE), 0.73 ± 0.02 nM in experiment [1] and 0.65 ± 0.03 nM in experiment [2]. Besides, the Emax turned out to be 70% in experiment [1] and 40% in experiment [2]. In addition, the “RBA (%)” value at ER was determined as 46.5 ± 7%.

For the compound `O=C(c1ccccc1)c1sc2cc(O)ccc2c1Oc1ccc(OC2CN(CCCF)C2)cc1` [Compound 15, (3-(4-((1-(3-fluoropropyl)azetidin-3-yl)oxy)phenoxy)-6-hydroxybenzo[b]thiophen-2-yl)(phenyl)methanone], the IC50 turned out to be 5.2 ± 0.06 nM with ER (ERE), 0.15 ± 0.02 nM in experiment [1] and 0.12 ± 0.02 nM in experiment [2]. In addition, the Emax in experiment [1] is 60%; in experiment [2], 40%.

With `Cc1cc(F)ccc1C(=O)c1sc2cc(O)ccc2c1Oc1ccc(OC2CN(CCCF)C2)cc1` [Compound 16, (4-fluoro-2-methylphenyl)(3-(4-((1-(3-fluoropropyl)azetidin-3-yl)oxy)phenoxy)-6-hydroxybenzo[b]thiophen-2-yl)methanone], the figures for the IC50 (in the experiment with ER (ERE); in experiment [1]; in experiment [2]) were 11 ± 0.5 nM, 0.15 ± 0.02 nM and 0.95 ± 0.04 nM, respectively. For the same compound, the Emax is 70% in experiment [1] and 50% in experiment [2]. On ER, the “RBA (%)” value amounted to 38.1 ± 9%.

Take `Cc1ccccc1C(=O)c1sc2cc(O)ccc2c1Oc1ccc(OC2CN(CCCF)C2)cc1` [Compound 20, (3-(4-((1-(3-fluoropropyl)azetidin-3-yl)oxy)phenoxy)-6-hydroxybenzo[b]thiophen-2-yl)(o-tolyl)methanone]: the IC50 was determined as 5.3 ± 0.08 nM in the experiment on ER (ERE), 0.04 ± 0.006 nM in experiment [1] and 4.9 ± 0.2 nM in experiment [2]. The Emax was found to be 75% in experiment [1] and 70% in experiment [2]. The “RBA (%)” value at ER was determined as 27.8 ± 8%.

On to `Cc1cc(F)cc(C)c1C(=O)c1sc2cc(O)ccc2c1Oc1ccc(OCCN2CC[C@@H](CF)C2)cc1` [Compound 35, (R)-(4-fluoro-2,6-dimethylphenyl)(3-(4-(2-(3-(fluoromethyl)pyrrolidin-1-yl)ethoxy)phenoxy)-6-hydroxybenzo[b]thiophen-2-yl)methanone], for which the IC50 in the experiment on ER (ERE) was 12 ± 2 nM; in experiment [1] it was 0.56 ± 0.01 nM; in experiment [2] it was 0.28 ± 0.07 nM. The figures for the Emax in experiment [1] and in experiment [2] were 65% and 40%, respectively.

Regarding `Cc1ccccc1C(=O)c1sc2cc(O)ccc2c1Oc1ccc(OCCN2CC(C)C2)cc1` [Compound 60, (6-hydroxy-3-(4-(2-(3-methylazetidin-1-yl)ethoxy)phenoxy)benzo[b]thiophen-2-yl)(o-tolyl)methanone], the IC50 in the experiment on ER (ERE) stood at 1.9 ± 0.06 nM; in experiment [1] it was 0.02 ± 0.004 nM; in experiment [2], 0.65 ± 0.01 nM. Besides, the Emax in experiment [1] turned out to be 75%; in experiment [2] it was 55%.

Turning to `O=C(c1ccc(F)cc1)c1sc2cc(O)ccc2c1Oc1ccc(OCCN2CC(CF)C2)cc1` [Compound 61, (3-(4-(2-(3-(fluoromethyl)azetidin-1-yl)ethoxy)phenoxy)-6-hydroxybenzo[b]thiophen-2-yl)(4-fluorophenyl) methanone], the figures for the IC50 (in the experiment with ER (ERE); in experiment [1]; in experiment [2]) were 2.8 ± 0.1 nM, 1.3 ± 0.1 nM and 0.58 ± 0.04 nM, respectively. For the same compound, the Emax came to 70% in experiment [1] and 55% in experiment [2]. Also, the “RBA (%)” value on ER was found to be 9.15 ± 0.9%.

With `O=C(c1cccc(F)c1)c1sc2cc(O)ccc2c1Oc1ccc(OCCN2CC(CF)C2)cc1` [Compound 62, (3-(4-(2-(3-(fluoromethyl)azetidin-1-yl)ethoxy)phenoxy)-6-hydroxybenzo[b]thiophen-2-yl)(3-fluorophenyl) methanone], in experiment [1], the IC50 was found to be 0.28 ± 0.03 nM and the Emax amounted to 75%. Moreover, the “RBA (%)” value on ER is reported as 120 ± 13%. Moreover, in experiment [2], the IC50 came to 1.4 ± 0.2 nM and the Emax amounted to 60%.

Take `Cc1ccc(C(=O)c2sc3cc(O)ccc3c2Oc2ccc(OCCN3CC(CF)C3)cc2)c(C)c1` [Compound 63, (2,4-dimethylphenyl)(3-(4-(2-(3-(fluoromethyl)azetidin-1-yl)ethoxy)phenoxy)-6-hydroxybenzo[b]thiophen-2-yl)methanone]: the values for the IC50 (in the experiment with ER (ERE); in experiment [1]; in experiment [2]) were 7.4 ± 0.3 nM, 0.47 ± 0.009 nM and 0.56 ± 0.005 nM, respectively. Moreover, the values for the Emax in experiment [1] and in experiment [2] were 65% and 50%, respectively.

As for `Cc1cc(F)cc(C)c1C(=O)c1sc2cc(O)ccc2c1Oc1ccc(OCCN2CC[C@H](CF)C2)cc1` [Compound 64, (S)-(4-fluoro-2,6-dimethylphenyl)(3-(4-(2-(3-(fluoromethyl)pyrrolidin-1-yl)ethoxy)phenoxy)-6-hydroxybenzo[b]thiophen-2-yl)methanone], the IC50 in the experiment on ER (ERE) is 0.05 ± 0.001 nM; in experiment [1], 0.36 ± 0.001 nM; in experiment [2], 0.16 ± 0.1 nM. The Emax worked out at 70% in experiment [1] and 50% in experiment [2].

Regarding `Cc1ccccc1C(=O)c1sc2cc(O)ccc2c1Oc1ccc(OCCN2CCCCC2)cc1` [Compound 65, (6-hydroxy-3-(4-(2-(piperidin-1-yl)ethoxy)phenoxy)benzo[b]thiophen-2-yl)(o-tolyl)methanone], the figures for the IC50 (in the experiment with ER (ERE); in experiment [1]; in experiment [2]) were 2.1 ± 0.06 nM, 0.39 ± 0.05 nM and greater than 1000 nM, respectively. In experiment [1], the Emax was determined as 65%. In addition, the “RBA (%)” value on ER came to 91.8 ± 6%.

On to `C[C@]12CC[C@@H]3c4ccc(O)cc4C[C@@H](CCCCCCCCC[S+]([O-])CCCC(F)(F)C(F)(F)F)[C@H]3[C@@H]1CC[C@@H]2O` (stereo partly shown) [Fulvestrant, fulvestrant, reference compound], for which the IC50 was […] in the experiment on ER (ERE), 0.48 ± 0.03 nM in experiment [1] and 1.9 ± 0.01 nM in experiment [2]. Also, the Emax in experiment [1] amounted to 75%; in experiment [2], 55%.

The record behind these values is US12295939B2, “Substituted benzothiophene analogs as selective estrogen receptor degraders” (The Board of Trustees of the University of Illinois, priority 2018, dated 2025).
